Measurements published in paper PMC10924921, “Mi-2β promotes immune evasion in melanoma by activating EZH2 methylation” (Nature Communications, 2024).

Assays:
Assay in all cases: biochemical
Parameters in all cases: KINOMEscan active-site competition binding panel (468 kinase assays), per cent of control at 1000 nM
Conditions in all cases: KINOMEscan per cent of control (binding competition); read-out: Percent Control
BMPR2 = BMPR2 (Homo sapiens, UniProt Q13873)
From the text: (§1) Figure S7 / Percent Control

CLK4 = CLK4 (Homo sapiens, UniProt Q9HAZ1)
From the text: as §1

MAP3K4 = MAP3K4 (Homo sapiens, UniProt Q9Y6R4)
From the text: as §1

ASK1 = biological target: T1, ASK1 (Homo sapiens, UniProt Q99683)
T1 construct: gene MAP3K5
From the text: as §1

CDKL2 = CDKL2 (Homo sapiens, UniProt Q92772)
From the text: as §1

MAP3K2 = MAP3K2 (Homo sapiens, UniProt Q9Y2U5)
From the text: as §1

PRKD3 = PRKD3 (Homo sapiens, UniProt O94806)
From the text: as §1

[1] = biological target: T2, ABL1(Q252H)-phosphorylated (Homo sapiens, UniProt P00519, Q252H)
T2 construct: phosphorylated
From the text: as §1

CAMK2A = CAMK2A (Homo sapiens, UniProt Q9UQM7)
From the text: as §1

MUSK = MUSK (Homo sapiens, UniProt O15146)
From the text: as §1

CDK7 = CDK7 (Homo sapiens, UniProt P50613)
From the text: as §1

CDK3 = CDK3 (Homo sapiens, UniProt Q00526)
From the text: as §1

MYLK2 = MYLK2 (Homo sapiens, UniProt Q9H1R3)
From the text: as §1

TNK2 = TNK2 (Homo sapiens, UniProt Q07912)
From the text: as §1

CLK1 = CLK1 (Homo sapiens, UniProt P49759)
From the text: as §1

STK39 = STK39 (Homo sapiens, UniProt Q9UEW8)
From the text: as §1

PKN1 = PKN1 (Homo sapiens, UniProt Q16512)
From the text: as §1

WNK4 = WNK4 (Homo sapiens, UniProt Q96J92)
From the text: as §1

PRKD2 = PRKD2 (Homo sapiens, UniProt Q9BZL6)
From the text: as §1

ACVR1B = ACVR1B (Homo sapiens, UniProt P36896)
From the text: as §1

AKT1 = AKT1 (Homo sapiens, UniProt P31749)
From the text: as §1

BRSK1 = BRSK1 (Homo sapiens, UniProt Q8TDC3)
From the text: as §1

MET(Y1235D) = MET(Y1235D) (Homo sapiens, UniProt P08581, Y1235D)
From the text: as §1

EGFR(L861Q) = EGFR(L861Q) (Homo sapiens, UniProt P00533, L861Q)
From the text: as §1

PIP5K2B = biological target: T3, PIP5K2B (Homo sapiens, UniProt P78356)
T3 construct: gene PIP4K2B
From the text: as §1

Sequence of CLK4 (Q9HAZ1 whole entry): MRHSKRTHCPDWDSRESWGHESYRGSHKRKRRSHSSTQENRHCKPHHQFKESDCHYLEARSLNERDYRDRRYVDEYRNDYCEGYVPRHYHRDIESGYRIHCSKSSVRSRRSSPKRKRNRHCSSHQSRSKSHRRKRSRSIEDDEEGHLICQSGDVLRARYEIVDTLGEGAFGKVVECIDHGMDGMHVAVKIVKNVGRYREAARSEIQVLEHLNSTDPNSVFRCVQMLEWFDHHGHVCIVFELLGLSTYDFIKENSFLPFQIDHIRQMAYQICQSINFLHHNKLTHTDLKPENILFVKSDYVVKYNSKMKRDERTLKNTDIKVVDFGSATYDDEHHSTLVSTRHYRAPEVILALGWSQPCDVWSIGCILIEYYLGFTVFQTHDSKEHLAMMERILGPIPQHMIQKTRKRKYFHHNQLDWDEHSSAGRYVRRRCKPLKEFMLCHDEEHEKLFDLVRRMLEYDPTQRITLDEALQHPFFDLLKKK
Sequence of BMPR2 (Q13873 whole entry): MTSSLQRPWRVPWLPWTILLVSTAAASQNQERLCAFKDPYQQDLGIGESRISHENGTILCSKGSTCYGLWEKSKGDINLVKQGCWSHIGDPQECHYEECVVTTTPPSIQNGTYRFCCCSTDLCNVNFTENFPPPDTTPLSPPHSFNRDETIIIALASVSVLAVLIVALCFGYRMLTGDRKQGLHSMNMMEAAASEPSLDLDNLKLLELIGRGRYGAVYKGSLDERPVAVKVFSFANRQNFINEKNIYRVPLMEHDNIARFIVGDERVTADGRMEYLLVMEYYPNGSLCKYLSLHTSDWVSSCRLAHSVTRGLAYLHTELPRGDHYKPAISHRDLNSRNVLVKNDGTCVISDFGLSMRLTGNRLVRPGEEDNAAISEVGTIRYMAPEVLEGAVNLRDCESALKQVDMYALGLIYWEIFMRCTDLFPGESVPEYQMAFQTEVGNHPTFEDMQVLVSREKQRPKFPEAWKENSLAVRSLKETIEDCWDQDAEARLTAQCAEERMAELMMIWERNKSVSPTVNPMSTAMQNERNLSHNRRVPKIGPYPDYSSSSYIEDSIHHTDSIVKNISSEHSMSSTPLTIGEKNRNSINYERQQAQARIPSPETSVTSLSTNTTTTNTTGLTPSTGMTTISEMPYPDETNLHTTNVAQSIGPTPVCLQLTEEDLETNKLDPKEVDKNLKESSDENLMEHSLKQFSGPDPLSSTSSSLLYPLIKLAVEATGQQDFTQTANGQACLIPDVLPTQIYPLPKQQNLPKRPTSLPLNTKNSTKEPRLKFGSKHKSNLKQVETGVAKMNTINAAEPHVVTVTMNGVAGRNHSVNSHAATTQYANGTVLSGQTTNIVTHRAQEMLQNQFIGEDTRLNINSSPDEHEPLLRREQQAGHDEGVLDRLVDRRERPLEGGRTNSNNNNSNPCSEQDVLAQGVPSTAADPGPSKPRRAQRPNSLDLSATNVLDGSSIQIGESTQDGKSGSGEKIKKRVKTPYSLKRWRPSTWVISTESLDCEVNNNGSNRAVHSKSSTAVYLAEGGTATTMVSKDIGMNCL
Sequence of MAP3K2 (Q9Y2U5 whole entry): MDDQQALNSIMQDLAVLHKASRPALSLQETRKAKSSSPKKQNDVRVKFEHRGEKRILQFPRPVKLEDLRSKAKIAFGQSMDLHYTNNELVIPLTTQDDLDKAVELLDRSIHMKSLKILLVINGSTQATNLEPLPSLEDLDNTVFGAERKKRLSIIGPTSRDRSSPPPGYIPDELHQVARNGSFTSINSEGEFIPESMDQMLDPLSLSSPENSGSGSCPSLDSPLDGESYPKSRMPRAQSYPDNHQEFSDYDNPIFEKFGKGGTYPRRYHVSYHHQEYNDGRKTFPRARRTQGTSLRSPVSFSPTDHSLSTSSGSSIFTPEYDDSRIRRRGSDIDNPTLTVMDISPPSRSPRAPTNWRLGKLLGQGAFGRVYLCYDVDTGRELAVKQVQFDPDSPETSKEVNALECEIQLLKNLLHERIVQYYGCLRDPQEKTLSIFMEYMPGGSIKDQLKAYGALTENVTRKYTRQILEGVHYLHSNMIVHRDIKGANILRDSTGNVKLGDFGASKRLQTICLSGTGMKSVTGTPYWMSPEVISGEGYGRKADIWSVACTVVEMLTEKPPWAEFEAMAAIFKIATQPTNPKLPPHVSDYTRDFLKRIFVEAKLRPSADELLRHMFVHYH
Sequence of MET(Y1235D) (P08581 whole entry Y1235D): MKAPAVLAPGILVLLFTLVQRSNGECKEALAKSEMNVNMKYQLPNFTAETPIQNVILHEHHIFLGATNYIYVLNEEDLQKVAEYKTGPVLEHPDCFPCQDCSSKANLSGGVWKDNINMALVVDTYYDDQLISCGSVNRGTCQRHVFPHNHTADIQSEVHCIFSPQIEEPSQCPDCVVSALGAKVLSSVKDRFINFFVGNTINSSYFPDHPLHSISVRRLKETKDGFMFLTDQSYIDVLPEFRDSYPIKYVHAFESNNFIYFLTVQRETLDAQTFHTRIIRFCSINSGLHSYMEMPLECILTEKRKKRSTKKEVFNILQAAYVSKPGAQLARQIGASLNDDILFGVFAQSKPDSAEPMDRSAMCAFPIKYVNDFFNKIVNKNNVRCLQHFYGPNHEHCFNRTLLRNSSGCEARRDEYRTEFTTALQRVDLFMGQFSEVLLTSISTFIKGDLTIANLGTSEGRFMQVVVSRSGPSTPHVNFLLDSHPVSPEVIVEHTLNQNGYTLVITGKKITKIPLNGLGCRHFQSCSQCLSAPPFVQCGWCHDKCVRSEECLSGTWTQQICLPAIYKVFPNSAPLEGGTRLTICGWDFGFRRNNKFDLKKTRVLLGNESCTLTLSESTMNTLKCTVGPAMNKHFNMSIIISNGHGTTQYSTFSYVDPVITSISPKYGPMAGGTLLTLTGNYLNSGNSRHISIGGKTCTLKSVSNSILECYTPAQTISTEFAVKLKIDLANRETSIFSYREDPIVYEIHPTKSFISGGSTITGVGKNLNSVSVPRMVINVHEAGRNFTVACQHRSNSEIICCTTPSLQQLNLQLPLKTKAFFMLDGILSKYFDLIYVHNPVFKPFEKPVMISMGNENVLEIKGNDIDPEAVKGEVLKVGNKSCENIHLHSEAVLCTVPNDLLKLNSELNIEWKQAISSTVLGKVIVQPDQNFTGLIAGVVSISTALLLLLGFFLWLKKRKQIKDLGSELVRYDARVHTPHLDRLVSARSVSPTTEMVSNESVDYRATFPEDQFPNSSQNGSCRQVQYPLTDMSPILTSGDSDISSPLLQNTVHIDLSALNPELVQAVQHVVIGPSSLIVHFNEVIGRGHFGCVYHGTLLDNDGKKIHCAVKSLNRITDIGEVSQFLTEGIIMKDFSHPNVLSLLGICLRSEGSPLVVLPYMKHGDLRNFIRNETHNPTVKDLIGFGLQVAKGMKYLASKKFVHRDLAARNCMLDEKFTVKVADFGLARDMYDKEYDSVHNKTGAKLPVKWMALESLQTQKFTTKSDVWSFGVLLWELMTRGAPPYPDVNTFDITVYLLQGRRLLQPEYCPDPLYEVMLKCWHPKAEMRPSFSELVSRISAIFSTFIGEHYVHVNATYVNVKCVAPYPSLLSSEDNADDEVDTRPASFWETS
T1 sequence (Q99683 whole entry): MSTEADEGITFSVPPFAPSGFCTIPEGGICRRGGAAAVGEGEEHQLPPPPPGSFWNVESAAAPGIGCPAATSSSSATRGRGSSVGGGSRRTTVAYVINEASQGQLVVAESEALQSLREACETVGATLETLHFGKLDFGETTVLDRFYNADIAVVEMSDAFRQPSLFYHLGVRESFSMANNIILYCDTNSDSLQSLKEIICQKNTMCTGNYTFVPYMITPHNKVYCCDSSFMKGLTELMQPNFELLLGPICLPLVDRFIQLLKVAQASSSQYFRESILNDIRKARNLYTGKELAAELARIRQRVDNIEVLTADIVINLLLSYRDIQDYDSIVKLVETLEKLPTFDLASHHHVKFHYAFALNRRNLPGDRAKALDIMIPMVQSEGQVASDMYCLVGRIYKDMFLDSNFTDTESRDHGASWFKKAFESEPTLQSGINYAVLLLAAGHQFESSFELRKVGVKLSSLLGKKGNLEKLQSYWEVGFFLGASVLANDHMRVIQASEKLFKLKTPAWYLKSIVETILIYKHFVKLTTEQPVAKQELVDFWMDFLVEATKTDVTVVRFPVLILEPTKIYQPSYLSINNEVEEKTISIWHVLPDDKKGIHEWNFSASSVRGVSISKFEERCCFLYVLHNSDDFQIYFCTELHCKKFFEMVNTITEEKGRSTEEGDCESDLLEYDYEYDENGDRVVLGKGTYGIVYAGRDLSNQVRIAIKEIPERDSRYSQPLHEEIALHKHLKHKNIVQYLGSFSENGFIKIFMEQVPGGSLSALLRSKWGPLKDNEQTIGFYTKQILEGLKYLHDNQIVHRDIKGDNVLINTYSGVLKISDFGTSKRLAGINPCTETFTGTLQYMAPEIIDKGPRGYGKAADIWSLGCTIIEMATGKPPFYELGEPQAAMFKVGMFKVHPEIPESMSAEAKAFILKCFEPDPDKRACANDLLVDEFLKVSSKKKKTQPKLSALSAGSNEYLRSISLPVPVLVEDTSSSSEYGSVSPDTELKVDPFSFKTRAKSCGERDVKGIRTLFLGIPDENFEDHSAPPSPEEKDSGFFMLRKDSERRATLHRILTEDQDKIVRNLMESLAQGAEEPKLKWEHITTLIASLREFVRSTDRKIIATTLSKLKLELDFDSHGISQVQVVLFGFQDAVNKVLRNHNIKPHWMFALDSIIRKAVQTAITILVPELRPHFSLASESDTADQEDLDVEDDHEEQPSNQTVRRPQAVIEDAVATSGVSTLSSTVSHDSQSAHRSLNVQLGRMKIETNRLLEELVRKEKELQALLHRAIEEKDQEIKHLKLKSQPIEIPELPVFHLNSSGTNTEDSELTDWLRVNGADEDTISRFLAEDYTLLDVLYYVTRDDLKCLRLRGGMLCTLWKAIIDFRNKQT

Cn1c(=O)[nH]c2ccc(-c3cccc(C(=O)NC4CCn5ccnc5C4)c3)cc21 (stereo not shown) [Z36-MP5]
remaining binding at 1 µM (BMPR2): 62% | remaining binding at 1 µM (CLK4): 69% | remaining binding at 1 µM (MAP3K4): 63% | remaining binding at 1 µM (ASK1): 75% | remaining binding at 1 µM (CDKL2): 68% | remaining binding at 1 µM (MAP3K2): 65% | remaining binding at 1 µM (PRKD3): 91% | remaining binding at 1 µM [1]: 69% | remaining binding at 1 µM (CAMK2A): 87% | remaining binding at 1 µM (MUSK): 83% | remaining binding at 1 µM (CDK7): 42% | remaining binding at 1 µM (CDK3): 43% | remaining binding at 1 µM (MYLK2): 96% | remaining binding at 1 µM (TNK2): 41% | remaining binding at 1 µM (CLK1): 96% | remaining binding at 1 µM (STK39): 60% | remaining binding at 1 µM (PKN1): 99% | remaining binding at 1 µM (WNK4): 81% | remaining binding at 1 µM (PRKD2): 64% | remaining binding at 1 µM (ACVR1B): 94% | remaining binding at 1 µM (AKT1): 95% | remaining binding at 1 µM (BRSK1): 92% | remaining binding at 1 µM (MET(Y1235D)): 93% | remaining binding at 1 µM (EGFR(L861Q)): 69% | remaining binding at 1 µM (PIP5K2B): 54%
